Data reported in article PMC10575921 (Nature Communications, 2023).
In brackets after ≈: the same amount, converted by molar mass. Several values for one entry are separate records, joined by “and”; a condition that tells them apart may be missing. Equal entries are not always repeated. Where two headings read alike, the source gives them in different places.

Legend:
SARS-CoV-2 3CL^pro = SARS-CoV-2 3CL^pro (Severe acute respiratory syndrome coronavirus 2, UniProt P0DTD1); experiment: biochemical
SARS-CoV-2 Delta strain = experiment: microbe, parasite or virus in culture; assay type: cell-based
[1] = buffer, pH 7.4
in vitro [2] = settings: African green monkey
[3] = tested on: human primary hepatocytes; settings: for % of vehicle control: primary hepatocyte cytotoxicity
[4] = tested on: Chinese hamster lung (CHL) cells
[5] = tested on: human peripheral blood mononuclear cells (PBMCs)
[6] = tested on: SARS-CoV-2 Omicron strain
[7] = both, cynomolgus monkey, in vivo
[8] = male, C57BL/6J, mouse, in vivo
[9] = male, C57BL/6J, in vivo
[10] = both, SD, rat, in vivo
[11] = both, cynomolgus monkey, in vivo; remark: listed apart in the source
[12] = tested on: human peripheral blood mononuclear cells (PBMCs); experiment: cells; settings: PBMC
[13] = tested on: human primary hepatocytes; experiment: cells; settings: Hepatocyte
in vivo [14] = settings: both, Sprague-Dawley, rat
in vivo [15] = settings: both, cynomolgus monkey
in vivo [16] = settings: male, C57BL/6J, mouse, po
in vivo [17] = settings: both, SD, rat
in vivo [18] = settings: both, cynomolgus monkey; remark: listed apart in the source
CYP3A4/5 = experiment: in vitro; settings: human, microsomes
in vitro [19] = settings: rat, plasma
in vitro [20] = settings: monkey, plasma
in vitro [21] = settings: mouse, plasma
CYP enzymes (all tested) = experiment: in vitro; settings: human
SARS-CoV-2 WIV04 strain = experiment: microbe, parasite or virus in culture; settings: Severe acute respiratory syndrome coronavirus 2, Vero C1008, read-out: EC50^CP
[22] = tested on: SARS-CoV-2 Omicron strain; experiment: microbe, parasite or virus in culture
[23] = concentration 31.25 nM, read-out: inhibition ratio (%)
[24] = concentration 500.00 nM, read-out: inhibition ratio (%)
[25] = Severe acute respiratory syndrome coronavirus 2, Vero C1008

## CC(C)(C)NC(=O)N[C@H](C(=O)N1C[C@H]2[C@@H]([C@H]1C(=O)N[C@H](C#N)C[C@@H]1CCNC1=O)C2(C)C)C(C)(C)C [compound 2]
SARS-CoV-2 3CL^pro; [23]
  inhibition at 0.03125 µM: 59.6%
SARS-CoV-2 3CL^pro; [24]
  inhibition at 0.5 µM: 100%
SARS-CoV-2 Delta strain; [25]
  EC50: 7400 nM
SARS-CoV-2 Delta strain; Severe acute respiratory syndrome coronavirus 2, Vero C1008, read-out: EC50 (nM), single independent experiment
  EC50: 5890 nM
SARS-CoV-2 Delta strain; read-out: EC50^CP
  EC50: 319 nM
[1]
  GSHt1/2 (half-life of the electrophile warhead to react with glutathione): 16 h
In vitro [2]
  CC50: > 500000 nM

## CC/C(=C(\c1ccccc1)c1ccc(OCCN(C)C)cc1)c1ccccc1 [Tamoxifen]
[3]; 0.206 μM
  % of vehicle control: 109.51%
[3]; 5.56 μM
  % of vehicle control: 81.38% and 83.81% and 90.39%
[3]; 16.67 μM
  % of vehicle control: 0.08% and 0.0644% and 0.0757%
[3]; 50 μM
  % of vehicle control: 0.06% and 0.05%
[3]; 150 μM
  % of vehicle control: 0.0474% and 0.03% and 0.04%

## CC(C)(C)[C@H](NC(=O)C(F)(F)F)C(=O)N1CC2(C[C@H]1C(=O)N[C@H](C#N)C[C@@H]1CCNC1=O)SCCS2 [compound 9, simnotrelvir]
SARS-CoV-2 Delta strain
  EC90^total: 0.906 µg/mL (≈ 1.65 µM)
SARS-CoV-2 Delta strain; Severe acute respiratory syndrome coronavirus 2, Vero C1008, read-out: EC90^total
  EC90: 0.523 µg/mL
SARS-CoV-2 Delta strain; read-out: EC50^CP
  EC50: 34 nM
SARS-CoV-2 Delta strain; read-out: EC90 (nM), single independent experiment
  EC90: 290 nM and 382 nM
413 human kinases
  inhibition of 413 human kinases: no significant inhibitory activities
[4]
  chromosome aberration test (CA) result: negative
[5]
  IC50 or CC50: PBMC: > 150000 nM
  toxicity to human PBMCs: no toxicity was observed
[3]; human
  IC50 or CC50: PHHs: > 150000 nM
  toxicity to human hepatocytes: no toxicity was observed
[6]
  EC50: 44.9 nM
[7]
  increase of AUC0-∞ by ritonavir: 9.6 fold
  increase of Cmax by ritonavir: 3.9 fold
[8]
  time plasma concentration maintained above EC90^total: 24 h
[9]
  exposure in the mouse brains: moderate simnotrelvir exposure
[9]; mouse
  time brain concentration covers EC50^total: > 8 h
  time brain concentration covers EC90^total: more than 2 h
[10]
  tolerability in two-week toxicity study: well tolerated
[11]
  tolerability in two-week toxicity study: well tolerated
CYP3A
  calculated metabolic contribution of CYP3A: 87%
[12]
  IC50: > 150000 nM
[13]
  IC50: > 150000 nM
In vivo [14]; 15 mg/kg
  bioavailability: 35.3%
  half-life: 0.45 h
In vivo [14]; iv, 15 mg/kg
  Vd: 1.36 L/kg
  clearance: 59.3 mL/min/kg
In vivo [14]; po
  AUC(0-inf): 9000 ng·h/mL
  AUC(0-t): 8920 ng·h/mL
  Cmax: 2760 ng/mL
  half-life: 1.99 h
In vivo [14]; po, 15 mg/kg
  AUC(0-inf): 1730 ng·h/mL
  AUC(0-t): 1700 ng·h/mL
  Cmax: 1580 ng/mL
  half-life: 1.29 h
In vivo [15]; 5 mg/kg
  bioavailability: 41.9%
  half-life: 1.7 h
In vivo [15]; iv, 5 mg/kg
  Vd: 1.5 L/kg
  clearance: 20.7 mL/min/kg
In vivo [15]; po
  AUC(0-inf): 17200 ng·h/mL
  AUC(0-t): 17000 ng·h/mL
  Cmax: 2440 ng/mL
  half-life: 2.38 h
In vivo [15]; po, 5 mg/kg
  AUC(0-inf): 1790 ng·h/mL
  AUC(0-t): 1660 ng·h/mL
  Cmax: 625 ng/mL
  half-life: 5.63 h
In vivo [16]
  Cmax: 49300 ng/mL
In vivo [16]; 50 mg/kg
  Cmax: 18500 ng/mL
In vivo [17]; 1000 mg/kg/day
  Cmax: 17000 ng/mL
In vivo [17]; po
  NOAEL: 1000 mg/kg/day
In vivo [18]; 600 mg/kg/day
  Cmax: 26400 ng/mL
In vivo [18]; po
  NOAEL: 600 mg/kg/day
CYP3A4/5
  IC50: 30000 nM
CYP3A4/5; […]
  activity at 0.1 µM: 104%
  activity at 1 µM: 101%
  activity at 3.33 µM: 95.4%
CYP3A4/5; […], 10 μM
  activity at 10 µM: 73.9%
CYP3A4/5; […], 33.3 μM
  activity at 33.3 µM: 46.6%
CYP3A4/5; […], 100 μM
  activity at 100 µM: 21.8%
In vitro [19]
  fraction unbound: 0.334
In vitro [20]
  fraction unbound: 0.193
In vitro [21]
  fraction unbound: 0.217
CYP enzymes (all tested)
  IC50: ≥ 30000 nM
SARS-CoV-2 WIV04 strain
  EC50: 26 nM
[22]; [25]
  EC50: 38.7 nM
[22]; Severe acute respiratory syndrome coronavirus 2, Vero C1008, read-out: EC50^CP
  EC50: 43 nM

## CC(C)(C)NC(=O)N[C@H](C(=O)N1C[C@@H](c2ccccc2)C[C@H]1C(=O)N[C@H](C#N)C[C@@H]1CCNC1=O)C(C)(C)C [compound 5]
SARS-CoV-2 3CL^pro; IC50
  IC50: 814 nM
SARS-CoV-2 3CL^pro; IC50 (nM)
  IC50: 883 nM and 880 nM and 679 nM
SARS-CoV-2 3CL^pro; concentration 5000.00 nM, read-out: inhibition ratio (%)
  inhibition at 5 µM: 91.4%
SARS-CoV-2 3CL^pro; concentration 10000.00 nM, read-out: inhibition ratio (%)
  inhibition at 10 µM: 94.8%

## CC(C)(C)[C@H](NS(=O)(=O)C1CC1)C(=O)N1CC2(C[C@H]1C(=O)N[C@H](C#N)C[C@@H]1CCNC1=O)SCCS2 [compound 12]
SARS-CoV-2 3CL^pro; 15.63 nM, read-out: inhibition ratio (%)
  inhibition at 0.01563 µM: 72.8%
SARS-CoV-2 3CL^pro; 31.25 nM, read-out: inhibition ratio (%)
  inhibition at 0.03125 µM: 86.6%
SARS-CoV-2 3CL^pro; 500.00 nM, read-out: inhibition ratio (%)
  inhibition at 0.5 µM: 97.9%
SARS-CoV-2 Delta strain; Severe acute respiratory syndrome coronavirus 2, Vero C1008, read-out: EC50 (nM) Mean
  EC50: 10700 nM
In vitro [2]
  CC50: > 500000 nM

## CC(C)(C)NC(=O)N[C@H](C(=O)N1CC[C@@H](Oc2ccccc2)[C@H]1C(=O)N[C@H](C#N)C[C@@H]1CCNC1=O)C(C)(C)C [compound 4]
SARS-CoV-2 3CL^pro; IC50
  IC50: 6940 nM
SARS-CoV-2 3CL^pro; IC50 (nM)
  IC50: 7170 nM and 7720 nM and 5940 nM
SARS-CoV-2 3CL^pro; concentration 3125.00 nM, read-out: inhibition ratio (%)
  inhibition at 3.125 µM: 31.2%
SARS-CoV-2 3CL^pro; concentration 50000.00 nM, read-out: inhibition ratio (%)
  inhibition at 50 µM: 91.2%
SARS-CoV-2 3CL^pro; concentration 100000.00 nM, read-out: inhibition ratio (%)
  inhibition at 100 µM: 96.8%
SARS-CoV-2 3CL^pro; concentration […], read-out: inhibition ratio (%)
  inhibition at 25 µM: 86%

## CC(C)(C)NC(=O)N[C@H](C(=O)N1C[C@@H]2CCC[C@@H]2[C@H]1C(=O)N[C@H](C#N)C[C@@H]1CCNC1=O)C(C)(C)C [compound 8]
SARS-CoV-2 3CL^pro; IC50
  IC50: 50 nM
SARS-CoV-2 3CL^pro; IC50 (nM)
  IC50: 49.2 nM and 55.8 nM and 45.8 nM
SARS-CoV-2 3CL^pro; [23]
  inhibition at 0.03125 µM: 37.9%
SARS-CoV-2 3CL^pro; [24]
  inhibition at 0.5 µM: 93.2%
